Source: the NIST ThermoML archive (doi:10.1016/j.fluid.2015.10.027)

Experiment: heat capacity at constant pressure per volume; xn = mol fraction of the nth substance listed
Settings: DSC

CC1CCCC(C)N1 (stereo not drawn) [2,6-dimethylpiperidine] + O
Liquid mixture 1, x1 = 0.055
Settings	heat capacity [J/K/m3]
264 K	4559000
264.47 K	4560000
264.95 K	4546000
265.42 K	4529000
265.9 K	4518000
266.37 K	4505000
266.84 K	4492000
267.32 K	4480000
267.79 K	4471000
268.26 K	4448000
268.74 K	4442000
269.21 K	4429000
269.68 K	4420000
270.16 K	4409000
270.63 K	4398000
271.1 K	4391000
271.58 K	4375000
272.05 K	4367000
272.52 K	4356000
273 K	4342000
273.47 K	4341000
273.94 K	4336000
274.42 K	4322000
274.89 K	4313000
275.36 K	4305000
275.84 K	4293000
276.31 K	4289000
276.78 K	4278000
277.25 K	4274000
277.73 K	4266000
278.2 K	4260000
278.68 K	4252000
279.15 K	4250000
279.62 K	4239000
280.1 K	4237000
280.57 K	4227000
281.04 K	4227000
281.51 K	4221000
281.99 K	4216000
282.46 K	4215000
282.94 K	4208000
283.41 K	4206000
283.88 K	4199000
284.36 K	4195000
284.83 K	4191000
285.3 K	4189000
285.77 K	4182000
286.25 K	4178000
286.72 K	4177000
287.19 K	4174000
287.67 K	4174000
288.14 K	4172000
288.61 K	4170000
289.09 K	4171000
289.56 K	4167000
290.03 K	4166000
290.51 K	4165000
290.98 K	4166000
291.45 K	4165000
291.93 K	4166000
292.6 K	4164000
292.81 K	4147000
293.02 K	4141000
293.23 K	4164000
293.45 K	4134000
293.66 K	4144000
293.87 K	4164000
294.08 K	4166000
294.3 K	4164000
294.51 K	4144000
294.72 K	4183000
294.93 K	4155000
295.14 K	4142000
295.36 K	4144000
295.57 K	4153000
295.78 K	4178000
295.99 K	4155000
296.2 K	4175000
296.42 K	4213000
296.63 K	4189000
296.84 K	4188000
297.06 K	4228000
297.27 K	4210000
297.48 K	4217000
297.69 K	4232000
297.9 K	4249000
298.12 K	4247000
298.33 K	4277000
298.54 K	4280000
298.75 K	4295000
298.96 K	4312000
299.18 K	4375000
299.39 K	4534000

102.6 kPa, Liquid, x1 = 0.055
Settings	heat capacity [J/K/m3]
299.6 K	5314000
299.81 K	5077000
300.03 K	5010000
300.24 K	4873000
300.45 K	4815000
300.66 K	4801000
300.88 K	4772000
301.09 K	4785000
301.3 K	4742000
301.51 K	4632000
301.73 K	4641000
301.94 K	4672000
302.15 K	4625000
302.36 K	4675000
302.57 K	4597000
302.79 K	4600000
303 K	4544000
303.21 K	4578000
303.42 K	4592000
303.64 K	4555000
303.85 K	4564000
304.06 K	4532000
304.27 K	4520000
304.49 K	4530000
304.7 K	4519000
304.91 K	4468000
305.12 K	4514000
305.33 K	4463000
305.55 K	4423000
305.76 K	4443000

CC1CCCC(C)N1 (stereo not drawn) [2,6-dimethylpiperidine] + [2H]O[2H]
Liquid mixture 1, x1 = 0.054
Settings	heat capacity [J/K/m3]
270.36 K	4851000
270.67 K	4851000
270.98 K	4850000
271.3 K	4843000
271.61 K	4841000
271.92 K	4831000
272.23 K	4822000
272.54 K	4813000
272.85 K	4803000
273.16 K	4797000
273.47 K	4793000
273.78 K	4785000
274.1 K	4778000
274.41 K	4775000
274.72 K	4768000
275.03 K	4764000
275.34 K	4752000
275.65 K	4755000
275.96 K	4749000
276.27 K	4742000
276.58 K	4732000
276.89 K	4728000
277.21 K	4720000
277.52 K	4717000
277.83 K	4706000
278.14 K	4700000
278.45 K	4697000
278.76 K	4694000
279.07 K	4693000
279.38 K	4689000
279.69 K	4685000
280 K	4677000
280.32 K	4675000
280.63 K	4668000
280.94 K	4667000
281.25 K	4661000
281.56 K	4654000
281.87 K	4654000
282.18 K	4653000
282.49 K	4642000
282.8 K	4640000
283.12 K	4641000
283.43 K	4645000
283.74 K	4645000
284.05 K	4638000
284.36 K	4635000
284.67 K	4627000
284.98 K	4628000
285.29 K	4633000
285.6 K	4630000
285.91 K	4623000
286.23 K	4610000
286.54 K	4617000
286.85 K	4623000
287.16 K	4612000
287.47 K	4611000
287.78 K	4609000
288.09 K	4606000
288.6 K	4566000
288.82 K	4558000
289.05 K	4578000
289.28 K	4580000
289.51 K	4581000
289.74 K	4539000
289.96 K	4559000
290.19 K	4609000
290.42 K	4604000
290.65 K	4587000
290.88 K	4581000
291.11 K	4554000
291.33 K	4556000
291.56 K	4590000
291.79 K	4592000
292.02 K	4589000
292.25 K	4578000
292.48 K	4643000
292.71 K	4602000
292.94 K	4606000
293.16 K	4623000
293.39 K	4660000
293.62 K	4615000
293.85 K	4629000
294.08 K	4700000
294.31 K	4655000
294.53 K	4669000
294.76 K	4707000
294.99 K	4644000
295.22 K	4708000
295.45 K	4694000
295.68 K	4733000
295.9 K	4759000
296.13 K	4861000
296.36 K	5146000

102.6 kPa, Liquid, x1 = 0.054
Settings	heat capacity [J/K/m3]
296.59 K	5567000
296.82 K	5424000
297.05 K	5334000
297.28 K	5260000
297.5 K	5164000
297.73 K	5179000
297.96 K	5136000
298.19 K	5070000
298.42 K	5083000
298.65 K	5094000
298.88 K	5093000
299.1 K	5111000
299.33 K	5023000
299.56 K	5049000
299.79 K	5063000
300.02 K	5028000
300.25 K	5015000
300.48 K	5009000
300.7 K	4961000
300.93 K	4977000
301.16 K	4985000
301.39 K	4958000
301.62 K	4957000
301.85 K	4945000
302.07 K	4916000
302.3 K	4889000
302.53 K	4922000

Cc1cccc(C)n1 [2,6-dimethylpyridine] + O
Liquid mixture 1, x1 = 0.066
Settings	heat capacity [J/K/m3]
270.67 K	3943000
271.17 K	3939000
271.67 K	3932000
272.17 K	3933000
272.67 K	3929000
273.17 K	3934000
273.67 K	3928000
274.17 K	3930000
274.67 K	3924000
275.17 K	3925000
275.67 K	3922000
276.17 K	3920000
276.67 K	3918000
277.17 K	3918000
277.67 K	3919000
278.17 K	3918000
278.67 K	3916000
279.17 K	3913000
279.67 K	3916000
280.17 K	3914000
280.67 K	3914000
281.18 K	3913000
281.68 K	3910000
282.18 K	3910000
282.68 K	3907000
283.18 K	3907000
283.68 K	3904000
284.18 K	3907000
284.68 K	3905000
285.18 K	3909000
285.68 K	3905000
286.18 K	3903000
286.68 K	3907000
287.18 K	3907000
287.68 K	3910000
288.18 K	3913000
288.68 K	3913000
289.18 K	3912000
289.68 K	3912000
290.18 K	3910000
290.68 K	3913000
291.18 K	3912000
291.68 K	3913000
292.18 K	3916000
292.68 K	3917000
293.18 K	3915000
293.68 K	3911000
294.18 K	3914000
294.68 K	3914000
295.18 K	3913000
295.68 K	3912000
296.18 K	3913000
296.68 K	3912000
297.18 K	3914000
297.69 K	3914000
298.19 K	3918000
298.69 K	3919000
299.19 K	3916000
299.78 K	3918000
299.99 K	3916000
300.2 K	3912000
300.41 K	3920000
300.62 K	3927000
300.84 K	3944000
301.05 K	3932000
301.26 K	3930000
301.47 K	3942000
301.69 K	3950000
301.9 K	3947000
302.11 K	3945000
302.32 K	3932000
302.54 K	3934000
302.75 K	3933000
302.96 K	3962000
303.17 K	3969000
303.38 K	3938000
303.6 K	3938000
303.81 K	3935000
304.02 K	3948000
304.23 K	3973000
304.44 K	3963000
304.66 K	3960000
304.87 K	3953000
305.08 K	3960000
305.29 K	3975000
305.51 K	3976000
305.72 K	3956000
305.93 K	4006000
306.14 K	4011000
306.36 K	4082000
306.57 K	4075000

102.6 kPa, Liquid, x1 = 0.066
Settings	heat capacity [J/K/m3]
306.78 K	4520000
306.99 K	4372000
307.2 K	4347000
307.42 K	4321000
307.63 K	4254000
307.84 K	4227000
308.05 K	4182000
308.27 K	4223000
308.48 K	4199000
308.69 K	4189000
308.9 K	4170000
309.12 K	4188000
309.33 K	4206000
309.54 K	4165000
309.75 K	4175000
309.96 K	4206000
310.18 K	4189000
310.39 K	4172000
310.6 K	4170000
310.81 K	4154000
311.03 K	4103000
311.24 K	4121000
311.45 K	4142000
311.66 K	4101000
311.88 K	4141000
312.09 K	4083000
312.3 K	4117000
312.51 K	4078000
312.73 K	4100000
